10 compounds from ChEMBL document CHEMBL5126499, “Small molecule therapeutics for tauopathy in Alzheimer's disease: Walking on the path of most resistance” (Eur J Med Chem, 2021) can be followed below.

pEC50, pIC50: −log10 of the molar value.

Data set [1] relates to Drosophila. Kind of data set: Inhibition of tau protein accumulation in Drosophila larvae eye assessed as reduction in tau protein level at 0.75 mg/ml dripped every other day by immunohistochemistry. The class given is functional.
The nature of data set [2]: Cmax in mouse brain at 10 mg/kg, ip. The class given is ADME, organism-based. The arrangement: dose 10 mg/kg, route ip. As to conditions: in vivo.
The nature of data set [3]: Tmax in mouse brain at 10 mg/kg, ip. The class given is ADME, organism-based.
A short description of data set [4]: Reduction of tau protein level in human HeLa C3 cells transfected with human 4R0N tau at 30 uM incubated for 24 hrs by Western blot analysis relative to control. The class given is functional. Also noted: scale not given: the % may be the effect or the level left. In general terms: Immunoblotting shows a protein as a band on a membrane.
The species entered for data set [5] is Homo sapiens. Description: Inhibition of human HSP70 ATPase activity at 10 uM incubated for 3 hrs by malachite green reagent based HTS analysis relative to control.
Data set [6] is described as follows: Inhibition of human HSP70 ATPase activity at incubated for 3 hrs by malachite green reagent based HTS analysis.
Data set [7] in a line: Induction of SirT2 production in mouse N2a cells transfected with ApoE4 assessed as increase in SirT2 levels by sandwich ELISA. The class given is functional, cell-based. A general note: ELISA stands for enzyme-linked immunosorbent assay.
The nature of data set [8]: Inhibition of HSP70 in human HeLa C3 cells overexpressing tau protein assessed as reduction in tau protein level measured after 24 hrs by Western blot analysis. Conditions: HeLa C3, 24 h. The data set is classed as cell-based.
A short description of data set [9]: Inhibition of HSP70 in human SK-N-BE(2)-M17 cells overexpressing tau protein assessed as reduction in tau protein level measured after 24 hrs by Western blot analysis. The data set is classed as cell-based. As to conditions: SK-N-BE(2)-M17, 24 h.
For data set [10], the system named is SK-N-BE(2)-M17. Description: Inhibition of HSP70 in human SK-N-BE(2)-M17 cells overexpressing tau protein assessed as reduction in tau protein level at 0.025 to 9 uM measured after 24 hrs by Western blot analysis relative to control. As to conditions: dose 0.025-9 µM. The data set is classed as cell-based.
Data set [11] concerns HeLa C3. Description: Inhibition of HSP70 in human HeLa C3 cells overexpressing tau protein assessed as reduction in tau protein level at 0.025 to 9 uM measured after 24 hrs by Western blot analysis relative to control. The data set is classed as cell-based. As to conditions: dose 0.025-9 µM.

As usually defined, the inhibition is the relative decrease from the control value, in per cent. In the case of `O=C1C(Cl)=C(N[C@@H](Cc2c[nH]c3ccccc23)C(=O)O)C(=O)c2ccccc21`, the inhibition at 750 µg/mL in [1] is 70%.

What is called Tmax is the time from dosing to the highest level. `CCNC1=NC(c2ccc(F)cc2)NC(=O)N1` (stereo unspecified): the Cmax in [2] worked out at 1.5 ng/mg. Moreover, in [3], the Tmax was 30 min. For `CCn1c(=O)/c(=C2\Sc3cc(C(F)(F)F)ccc3N2C)s/c1=C\c1ccccn1`, the Activity in [4] is 50%. Turning to `CN(C)c1ccc2nc3ccc(=[N+](C)C)cc-3sc2c1`, the inhibition in [5] was > 80%. The pIC50 is the IC50 on a negative log10 scale, so that one unit is a factor of ten. `CNc1ccc2nc3ccc(N)cc3[s+]c2c1` [AZURE C]: the inhibition in data set [5] is > 80%. For the same compound, the pIC50 in [6] is 4.96.

In [6], `CN(C)c1ccc2nc3ccc(N(C)C)cc3[s+]c2c1` [METHYLENE BLUE ANHYDROUS] showed a pIC50 of 4.08. As a reminder, the pEC50 is the EC50 on a negative log10 scale, so that one unit is a factor of ten. In the case of `CC(N)C(=O)OC(C)(C)Cc1ccc(Cl)cc1` (stereo unspecified) [ALAPROCLATE], the pEC50 in data set [7] was 5.70. In the case of `CCn1c(=O)/c(=C2\Sc3ccccc3N2C)s/c1=C\c1cccc[n+]1CC`, the pEC50 in [8] was 5.10. Take `CCn1c(=O)/c(=C2\Sc3ccccc3N2C)s/c1=C\c1cccc[n+]1C`: the values for the pEC50 in data set [8] and in data set [9] were 6.05 and 5.82, respectively. Further, the inhibition in data set [10] and in data set [11] was 75% throughout. On to `O=c1c(O)c(-c2cc(O)c(O)c(O)c2)oc2cc(O)cc(O)c12` [MYRICETIN], for which the inhibition in data set [5] is > 80%. The same compound showed a pIC50 in [6] of 4.92.
